These results are taken from patent publication US11083701B2, “Dermatomycosis treatment agent” (priority 2015, dated 2021).

≈ marks a conversion by molar mass, not a printed value.

For assay [1], the system named is Candida krusei. As to conditions: Non-patent Literature 3; cited from earlier work.
Assay [2] deals with Aspergillus oryzae. As to conditions: Non-patent Literature 3; cited from earlier work.
Assay [3] concerns T. mentagrophytes, IFM59813. The assay is described as follows: Drug-sensitivity test, microdilution method, CLSI guidelines. Format: cell-based, Trichophyton mentagrophytes. As to the method:
(§1) The antimicrobial activity of therapeutic agents for treating dermatomycosis was evaluated and confirmed by performing a drug-sensitivity test with major pathogenic fungi in accordance with the CLSI (Clinical Laboratory Standards Institute, U.S.) guidelines. The pathogenic fungi selected were genus Trichophyton (T. rubrum, T. mentagrophytes), genus Microsporum (M. gypseum), genus Epidermophyton (E. floccosum), genus Candida (C. albicans), genus Aspergillus (A. fumigatus), and genus Cryptococcus (C. neoformans). The Examples show the test results. The antimicrobial activity of the compounds of the present invention (MIC, mg/ml) against T. mentagrophytes, which is a typical dermatophytic fungus, is as follows: tripotassium citrate 3.1; and trisodium citrate 6.3. A drug-sensitivity test with a fungus belonging to genus Malassezia (M. furfur) was also performed in accordance with the method of Sugita et al., which employs an agar dilution method (T. Sugita et al., J. Clinical Microbiology, 43, 2824-2829 (2005)). The antimicrobial activity against M. furfur (MIC, mg/ml) was as follows: tripotassium citrate 10.0.
In these drug-sensitivity tests, the medium contained Mg ions and Ca ions necessary for fungal conidia (spores) to germinate and grow. Because carboxyl groups of organic acids bind to these ions, organic acids have competitive inhibitory activity on fungal growth.
In the antimicrobial activity measurement method in accordance with the CLSI guidelines described above, an excessively large amount of magnesium ions and calcium ions is added to the RPMI-1640 medium for use. Thus, the trialkali metal salt of citric acid added to the test system binds completely to the excessively large amount of metal ions, resulting in an apparently large MIC value. For this reason, the ICP analytical method was performed to measure the content of magnesium ions and calcium ions in a test solution used as a blank test in this test system (a solution obtained by adding a solution containing spores of T. mentagrophytes to a RPMI-1640 medium solution, and performing a culture treatment) and to measure the content of magnesium ions and calcium ions in the original RPMI-1640 medium solution, thereby calculating the amount of alkali metal ions absorbed by the spores of T. mentagrophytes. The amount of the citric salt that can bind to all of the alkali metal ions absorbed by the spores is the substantial MIC value.
The antifungal activity of tripotassium citrate and trisodium citrate against a variety of pathogenic fungi was evaluated by performing a drug-sensitivity test. The test was performed using a microdilution method in accordance with the CLSI (Clinical Laboratory Standards Institute, U.S.) guidelines. […]
On the technique in general: Broth dilution looks for growth in wells or tubes with falling amounts of substance.

Assay [4] concerns small red papules. The assay is described as follows: Human case, Example 13: external treatment of small red papules. As to conditions: 3% (also printed 5%) test solution, sprayed once daily, left thigh. Format: in vivo. The procedure:
(§2) The curative action of trialkali metal salts of citric acid on dermatomycosis was determined based on whether there was a therapeutic effect on human tinea. The cases of tinea used in the test include a variety of cases, such as vesicular tinea on the skin, interdigital tinea, hyperkeratotic tinea, tinea corporis, and tinea unguium. […] In these cases, no skin irritation due to the medicinal agents was confirmed. In many cases described in the Examples, Trichophyton fungus was isolated and identified as a pathogenic fungus; additionally, Example 10 describes a case in which Candida was isolated and identified, and Example 11 describes a case in which Aspergillus was isolated and identified.
A 3% test solution of trisodium citrate was prepared in the same manner as in Example 4. This 5% test solution was sprayed once daily on small red papules that developed on the left thigh.

The test system of assay [5] is Candida albicans. The following applies: Non-patent Literature 5; cited from earlier work.
In assay [6] the test system is T. rubrum, IFM59814. The assay is described as follows: Drug-sensitivity test, microdilution method, CLSI guidelines. Format: cell-based, Trichophyton rubrum. The procedure: as §1, with “10.0. […]” for “10.0.”
(§3) The antifungal activity of tripotassium citrate and trisodium citrate against a variety of pathogenic fungi was evaluated by performing a drug-sensitivity test. […]

Assay [7] deals with M. gypseum, IFM58916. The description is as above. Format: cell-based, Microsporum gypseum. As to the method:
as §1, with “10.0. […]” for “10.0.”
as §3

For assay [8], the system named is E. floccosum, IFM53345. The assay is described as above. Type of assay: cell-based, Epidermophyton floccosum. As to the method: as §1, with “10.0. […]” for “10.0.”
as §3

Assay [9] concerns C. albicans, IFM5740. The assay is described as above. Type of assay: cell-based, Candida albicans. The procedure: as §1, with “10.0. […]” for “10.0.”
as §3

Assay [10] deals with A. fumigatus, IFM4942. The description is as above. Type of assay: cell-based, Aspergillus fumigatus. As to the method: as §1, with “10.0. […]” for “10.0.”
as §3

For assay [11], the system named is C. neoformans, IFM5807. The assay is described as above. Type of assay: cell-based, Cryptococcus neoformans. The procedure:
as §1, with “10.0. […]” for “10.0.”
as §3

In assay [12] the test system is M. furfur. The assay is described as follows: Malassezia drug-sensitivity test, method of Sugita et al. (agar dilution). Format: cell-based. As to conditions: mLNA medium, 32° C., 7 days. As to the method: as §1
The antimicrobial activity of tripotassium citrate against fungi belonging to genus Malassezia was evaluated by performing a drug-sensitivity test with human-related Malassezia species, in accordance with the method disclosed in Sugita et al. (2005). […]
On the technique in general: In agar dilution the substance is mixed into plates at graded concentrations.

Assay [13] concerns hyperkeratotic tinea (Trichophyton mentagrophytes isolated). The assay is described as follows: Human case, Example 3: external treatment of hyperkeratotic tinea. As to conditions: 0.5% test solution in 20% ethanol, sprayed three times daily, after about 3 months. Type of assay: in vivo. The procedure: as §2
20% ethanol was added to 5.3 g of tripotassium citrate monohydrate to give 1000 g, thereby preparing a 0.5% test solution. The 0.5% test solution was applied to hyperkeratotic tinea that extensively developed on the arch on the sole of a foot by spraying the solution three times daily. […] From the area affected by this tinea, Trichophyton mentagrophytes, which is one type of Trichophyton fungi, was isolated and confirmed.

The subject of assay [14] is vesicular tinea. The assay is described as follows: Human case, Example 4: external treatment of vesicular tinea. Type of assay: in vivo. As to conditions: 3% test solution, sprayed twice daily; symptom practically disappeared after about 1 month, treatment continued about 1 month more. The procedure:
as §2
20 mL of glycerin (84-87% aqueous solution) was added to 63.6 g of tripotassium citrate monohydrate, and 15% ethanol was further added thereto to give 2 L, thereby preparing a 3% test solution. This 3% test solution was applied twice daily, by spraying the solution, to vesicular tinea that extensively developed on the arch of the left foot. After about 1 month, the skin symptom practically disappeared.

Assay [15] deals with tinea corporis. The assay is described as follows: Human case, Example 5: external treatment of tinea corporis. As to conditions: 3% test solution, sprayed twice daily, after about 2 months. Format: in vivo. As to the method:
as §2
A 3% test solution of tripotassium citrate prepared in the same manner as in Example 4 was sprayed twice daily onto tinea corporis that extensively developed over the left part of the buttocks. […] Although light brown pigmentation developed on the healed skin, it faded away over time and became less prominent.

In assay [16] the test system is thin hyperkeratotic tinea (Trichophyton rubrum isolated). The assay is described as follows: Human case, Example 6: external treatment of thin hyperkeratotic tinea. Type of assay: in vivo. The following applies: 3% test solution, sprayed once daily, after about 1 month. The procedure:
as §2
A 3% test solution prepared in the same manner as in Example 4 was sprayed once daily onto thin hyperkeratotic tinea that extensively developed over around the tip of the nails on the sole of both feet. […] From this affected area of the skin, Trichophyton rubrum was isolated and confirmed.

For assay [17], the system named is interdigital tinea. The assay is described as follows: Human case, Example 7: external treatment of interdigital tinea. The following applies: 3% test solution, sprayed once daily, after about 2 months. Type of assay: in vivo. As to the method:
as §2
A 3% test solution prepared in the same manner as in Example 4 was sprayed once daily onto interdigital tinea that extensively developed between the toes of the feet.

In assay [18] the test system is tinea in four nails of the left foot. The assay is described as follows: Human case, Example 8: immersion treatment of toenail tinea. Format: in vivo. The following applies: entire foot immersed 1 hour daily in 3% test solution, after a half year. The procedure:
as §2
In the case in which tinea developed in all four nails except the fourth nail of the left foot, the entire foot was immersed for 1 hour daily in a 3% test solution prepared in the same manner as in Example 4. Over the course of the treatment, new nails grew from the base of the nails.

In assay [19] the test system is tinea of nail and surrounding skin (Trichophyton rubrum isolated). The assay is described as follows: Human case, Example 9: immersion treatment of fingernail tinea. Type of assay: in vivo. The following applies: 5% test solution, finger immersed 5 hours once every 2 days, after 3 months. The procedure:
as §2
20 mL of glycerin (84-87% aqueous solution) was added to 106 g of tripotassium citrate monohydrate, and 15% ethanol was further added thereto to give 2 L, thereby preparing a 5% test solution. About 2 mL of this test solution was placed into a commercially available fingerstall (size M). The middle finger of the right hand, which developed tinea on the right edge of the nail and the surrounding skin from the tip to the base of the nail, was immersed in the solution for 5 hours once every 2 days. […] From the nail specimen of this case, a Trichophyton fungus was isolated, and confirmed to be Trichophyton rubrum by gene analysis.

The test system of assay [20] is tinea unguium (Clavispora lusitaniae isolated). The assay is described as follows: Human case, Example 10: external treatment of tinea unguium. Type of assay: in vivo. The following applies: 5% solution, sprayed once daily, after one and a half months. The procedure:
as §2
A 5% solution of tripotassium citrate prepared in the same manner as in Example 9 was sufficiently sprayed once daily on tinea unguium on the tip of the nail of the fourth finger of the right hand. […] From the nail specimen of this affected area, a Candida fungus was isolated and confirmed to be Clavispora lusitaniae (the teleomorph of Candida lusitaniae) by gene analysis.

Assay [21] relates to small red papules (Aspergillus tubingensis as the pathogen). The assay is described as follows: Human case, Example 11: external treatment of small red papules. Format: in vivo. As to conditions: 5% solution, sprayed once daily, left chest. The procedure:
as §2
A 5% solution of tripotassium citrate prepared in the same manner as in Example 9 was sprayed once daily on small red papules that developed on the left chest part. […] From the small red papules, a body fluid was collected, and the pathogen was cultured, followed by gene analysis, thereby confirming Aspergillus tubingensis as the pathogen.

Assay [22] deals with tinea unguium. The assay is described as follows: Human case, Example 12: external treatment of tinea unguium. Format: in vivo. The following applies: 10% aqueous solution, sprayed once daily, after a half year. As to the method: as §2
A 10% aqueous solution of tripotassium citrate was prepared. This 10% test solution was sprayed once daily on the right thumbnail, the entirety of which had developed tinea unguium.

In assay [23] the test system is human tinea. The assay is described as follows: Curative action on human tinea, overall (Examples 3 to 13). Format: in vivo. The following applies: 5% solution applied; relapse of symptoms and pigmentation before the end result. As to the method:
as §2
Applying a 5% tripotassium citrate solution on the small red papules on the body made the papules smooth, and relapse of symptoms was observed after every day, with development of pigmentation, and followed by complete cure; this phenomenon was observed quite frequently. The relapse of symptoms was caused by germination of spores, and tripotassium citrate appears to have induced the germination of spores. The biggest factor for the low likelihood of curing dermatomycosis is the presence of spores; even after a treatment with a medicinal agent, if spores remain, the spores germinate, enabling dermatomycosis to return. […]

Turning to `O=C(O)CC(O)(CC(=O)O)C(=O)O` [citric acid, reference compound], the antimicrobial activity entry in [1] and in assay [2] was “did not exhibit antimicrobial activity” each time.
On to `C[C@@H]1[C@H](O)[C@@H](C)/C=C/C=C/C=C/C=C/C=C/C=C/C=C/[C@H](O[C@@H]2O[C@H](C)[C@@H](O)[C@H](N)[C@@H]2O)C[C@@H]2O[C@](O)(C[C@@H](O)C[C@@H](O)[C@H](O)CC[C@@H](O)C[C@@H](O)CC(=O)O[C@H]1C)C[C@H](O)[C@H]2C(=O)O` [amphotericin B, reference compound], for which the MIC (commonly the lowest concentration found to suppress growth) in [3] is 2000 µg/mL (≈ 2160 µM).
`O=C([O-])CC(O)(CC(=O)[O-])C(=O)[O-].[Na+].[Na+].[Na+]` [trisodium citrate] came in with an MIC in assay [3] of 6300 µg/mL. In addition, in assay [4], the “effect on small red papules” value is “immediately shrank, and after 2 weeks, cicatrization and pigmentation occurred”. In addition, the antimicrobial activity entry is “did not exhibit antimicrobial activity” in assay [1], “did not exhibit antimicrobial activity” in assay [2] and “exhibited antimicrobial activity” in [5].
Regarding `O=C([O-])CC(O)(CC(=O)[O-])C(=O)[O-].[K+].[K+].[K+]` [tripotassium citrate], the MIC worked out at 12500 µg/mL in assay [6]; 3100 µg/mL in [3]; 12500 µg/mL in assay [7]; 1600 µg/mL in assay [8]; 25000 µg/mL in [9]; 6300 µg/mL in assay [10]. For the same molecule, the values for the MIC in assay [11] and in assay [12] were 390 µg/mL and 10000 µg/mL, respectively. The “corrected MIC value” in assay [3] (corrected for the metal ions absorbed by spores (ICP analysis)) was 54 µg/mL. Besides, the “curative effect on hyperkeratotic tinea” value in [13] was “hyperkeratotic tinea disappeared, and clean skin grew back”. For the same molecule, the “curative effect on vesicular tinea” value in [14] was “this tinea was cured”. The “curative effect on tinea corporis” value in assay [15] is “tinea corporis disappeared, and healthy skin grew back”. Moreover, in assay [16], the “curative effect on thin hyperkeratotic tinea” value was “pink-color, healthy skin grew back”. Besides, the “curative effect on interdigital tinea” value in assay [17] was “the skin symptom disappeared, and healthy skin grew back”. Moreover, the “curative effect on nail tinea (foot)” value in assay [18] is given as “tinea in all of the nails was fully cured”. Moreover, the “curative effect on tinea of fingernail and surrounding skin” value in assay [19] is “a healthy nail and skin grew back”. The “curative effect on tinea unguium (Candida)” value in [20] is recorded as “tinea unguium was cured”. In addition, in assay [21], the “effect on small red papules (Aspergillus)” value is “immediately shrank, and after one week, pigmentation and cicatrization occurred”. Also, the “curative effect on tinea unguium” value in [22] is “a healthy nail returned”. The “effect on small red papules on the body” value in assay [23] is recorded as “complete cure”.
